Experimental data as given in patent US7713994B2 (Wyeth LLC, priority 2005, dated 2010).
Read-outs that look alike come from different tables or passages of the source.

Experiments:
cyclin D1/cdk 4 enzyme = target: T1, cyclin D1/cdk 4 enzyme (Homo sapiens, UniProt P11802); assay: CDK4 ELISA kinase assay (phospho-Rb ser 795 detection); type: biochemical
T1 construct: made in house; host or cells: Sf9 insect cells, recombinant baculovirus
Outline: (§1)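 Wells were coated overnight with GST-Rb C-terminal fragment, then blocked. Compound (10 ug/ml final) and cyclin/CDK enzyme from baculovirus-infected Sf9 cells with 200 μM ATP reacted 1 h at 30° C. Ser795 phosphorylation was detected by ELISA at 450 nm.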

cyclin E/CDK2 enzyme = target: T2, cyclin E/CDK2 enzyme (Homo sapiens, UniProt P24941); assay: CDK2 ELISA kinase assay (phospho-Rb ser 795 detection); type: biochemical
T2 construct: made in house; host or cells: Sf9 insect cells, recombinant baculovirus
Procedure: • 1. High-binding ELISA microtiter plates (Costar) were coated with 40 μl of the kinase substrate (GST fusion of C-terminal fragment of the retinoblastoma susceptibility gene product) diluted to 10 μg/ml in tris-buffered saline (TBS), overnight at 4° C. • 2. Non-specific binding sites were blocked for 1 hour at 4° C. with Superblock in TBS (Pierce), and the plates rinsed with water. • 3. For the screen, 1.5 μl of test compound (200 μg/ml stock in 20% DMSO/20 mM HEPES, pH 7.5) was added to each well. Final dose of the test compound in the assay was 10 ug/ml. […] The kinase reaction (30 μl) was dispensed into each well. Reactions contained 200 μM ATP, 0.5 mg/ml bovine serum albumin (BSA; Sigma), and 0.5 μl partially purified cyclin D1/cdk 4 enzyme*. The enzyme complex is expressed in insect cells (Sf9) infected with recombinant baculovirus and partially purified using ammonium sulfate fractionation. Reaction volumes were adjusted to 30 μl with kinase assay buffer (50 mM HEPES, pH 7.5, 10 mM MgCl2, 5% glycerol, 10 mM 2-mercaptoethanol). • *: For CDK2 assay, 1.0 μl cyclin E/CDK2 enzyme (diluted 1:1000 in kinase assay buffer) was used. The enzyme is isolated from insect cells (Sf9) infected with recombinant baculovirus and partially purified using ammonium sulfate fractionation. For CDK1 assay, 0.08 μl cyclin B/CDK1 enzyme [New England BioLabs; the enzyme is isolated from insect cells (Sf9) infected with recombinant baculovirus carrying human cdc 2 and human cyclin B] was used.
[…] • 5. Plates were incubated at 30° C. for 1 hour. • 6. The reaction mixture was removed by aspiration and replaced with 250 μl TBS containing 0.1% Tween-20 and 5% nonfat dry milk (blocking buffer). The plates were incubated at 4° C. for 1 hour. • 7. The blocking buffer was removed and replaced with 50 μl of the primary antibody [anti-phospho-Rb ser 795 (New England BioLabs) diluted 1:1000 in blocking buffer]. Incubation was at 4° C. for 16-20 hours. • 8. The wells were rinsed 3 times with 250 μl of TBS containing 0.1% Tween-20 followed by the addition of 50 μl of secondary antibody [anti-rabbit IgG conjugated to horseradish peroxidase (Amersham Life Science) diluted 1:1000 in blocking buffer]. • 9. After a 1 hour incubation at room temperature, the wells were rinsed 3 times with 250 μl of TBS/0.1% Tween 20. • 10. TMB (3,3′,5,5′-tetramethylbenzidine dihydrochloride) substrate solution (100 μl; Pierce) was added to each well and the color development reaction allowed to proceed 5-10 minutes at room temperature with shaking. The reaction was stopped by the addition of 2N sulfuric acid (100 μl) and the absorbance values read at 450 nm in a microplate reader (Molecular Devices). Analysis of Results: • 1. The percentage of the absorbance value in wells containing the test compound relative to control wells (no test agent) was determined. • 2. IC50 values of selected compounds were determined from inhibition curves, after subtracting background values (no substrate).

cyclin B/CDK1 enzyme = target: T3, cyclin B/CDK1 enzyme (Homo sapiens, UniProt P06493); assay: CDK1 ELISA kinase assay (phospho-Rb ser 795 detection); type: biochemical
T3 construct: purchased New England BioLabs; host or cells: Sf9 insect cells, recombinant baculovirus
T3 sequence (P06493 whole entry): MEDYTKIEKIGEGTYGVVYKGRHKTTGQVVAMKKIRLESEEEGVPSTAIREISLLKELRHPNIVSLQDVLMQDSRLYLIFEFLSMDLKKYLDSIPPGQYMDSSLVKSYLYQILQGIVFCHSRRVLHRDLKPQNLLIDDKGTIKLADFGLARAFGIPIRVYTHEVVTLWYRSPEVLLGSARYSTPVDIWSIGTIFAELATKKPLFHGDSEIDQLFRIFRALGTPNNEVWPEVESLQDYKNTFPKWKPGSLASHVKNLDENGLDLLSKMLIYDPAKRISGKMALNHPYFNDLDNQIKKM
T3 sequence (P14635 whole entry partner): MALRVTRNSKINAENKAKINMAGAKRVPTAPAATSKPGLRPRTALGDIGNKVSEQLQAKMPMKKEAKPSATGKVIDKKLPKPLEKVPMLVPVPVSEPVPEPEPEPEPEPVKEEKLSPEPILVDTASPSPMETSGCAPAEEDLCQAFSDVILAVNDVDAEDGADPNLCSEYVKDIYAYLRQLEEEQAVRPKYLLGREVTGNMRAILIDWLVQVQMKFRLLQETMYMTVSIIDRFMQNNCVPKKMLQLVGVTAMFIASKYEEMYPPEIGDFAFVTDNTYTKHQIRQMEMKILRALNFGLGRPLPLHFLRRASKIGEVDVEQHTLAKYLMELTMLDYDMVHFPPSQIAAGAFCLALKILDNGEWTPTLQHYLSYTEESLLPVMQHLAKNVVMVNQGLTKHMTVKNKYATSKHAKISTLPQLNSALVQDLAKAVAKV
Outline: as §1

BT474 = assay: Cytotoxicity assay (SRB), BT474; type: cell-based
Outline: (§2)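 Cells were seeded overnight in RPMI 1640 with 5% FBS at 37 °C, 7% CO2 (12000/well BT474, 4000 HCT-116, 6000 LoVo, 6000 MCF-7), then exposed to compound dilutions for 3 days (6 days for BT474). Survival versus untreated controls was measured by TCA fixation and SRB staining at 540 nm.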

LoVo = assay: Cytotoxicity assay (SRB), LoVo; type: cell-based; conditions: Homo sapiens, LoVo, 72 h, LoVo cells, SRB, read-out: In Vitro Cellular Activity IC50 LOVO
Outline: as §2

HCT-116 = assay: Cytotoxicity assay (SRB), HCT-116; type: cell-based; conditions: Homo sapiens, HCT-116, 72 h, HCT116 cells, 3 days, SRB; read-out: In Vitro Cellular Activity IC50 HCT116
Outline: as §2

MCF-7 = assay: Cytotoxicity assay (SRB), MCF-7; type: cell-based; conditions: Homo sapiens, MCF7, 72 h, MCF-7 cells, 3 days, SRB; read-out: In Vitro Cellular Activity IC50 MCF-7
Outline: as §2

[1] = In Vitro Enzyme Assays, 200 μM ATP, read-out: CDK4 IC50
[2] = In Vitro Enzyme Assays, read-out: CDK2 IC50
[3] = In Vitro Enzyme Assays, read-out: CDK1 IC50
[4] = Homo sapiens, BT-474, 144 h, BT474 cells, SRB, 6 days; read-out: In Vitro Cellular Activity IC50 BT474
[5] = In Vitro Enzyme Assay, read-out: CDK4 IC50
[6] = In Vitro Enzyme Assay, read-out: CDK2 IC50
[7] = In Vitro Enzyme Assay, read-out: CDK1 IC50
[8] = In Vitro Enzyme Assay, cyclin D1/cdk 4, read-out: CDK4 IC50
[9] = In Vitro Enzyme Assay, cyclin E/CDK2, read-out: CDK2 IC50
[10] = In Vitro Enzyme Assay, cyclin B/CDK1, read-out: CDK1 IC50
[11] = Homo sapiens, BT-474, 144 h, BT474 cells, 6 days, SRB; read-out: In Vitro Cellular Activity IC50 BT474

T1 sequence (P11802 whole entry, species assumed): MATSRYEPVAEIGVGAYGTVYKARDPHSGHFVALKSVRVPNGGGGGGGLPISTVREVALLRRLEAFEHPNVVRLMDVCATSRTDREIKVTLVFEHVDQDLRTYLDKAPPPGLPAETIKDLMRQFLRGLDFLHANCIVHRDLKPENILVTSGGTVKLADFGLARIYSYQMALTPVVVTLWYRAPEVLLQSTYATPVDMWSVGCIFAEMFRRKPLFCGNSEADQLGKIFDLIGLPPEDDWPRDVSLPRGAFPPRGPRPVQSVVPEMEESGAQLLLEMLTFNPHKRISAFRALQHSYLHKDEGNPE
T1 sequence (P24385 whole entry partner, species assumed): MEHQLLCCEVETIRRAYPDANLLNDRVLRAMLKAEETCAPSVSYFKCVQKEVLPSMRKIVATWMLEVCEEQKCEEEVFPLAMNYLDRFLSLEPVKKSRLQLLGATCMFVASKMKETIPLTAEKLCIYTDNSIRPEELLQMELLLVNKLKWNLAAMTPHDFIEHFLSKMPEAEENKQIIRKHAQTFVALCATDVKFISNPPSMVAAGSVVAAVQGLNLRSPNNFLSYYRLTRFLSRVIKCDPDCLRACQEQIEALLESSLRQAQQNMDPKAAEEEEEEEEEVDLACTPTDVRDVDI

Compound | IC50 (cyclin D1/cdk 4 enzyme; [8]) | IC50 (cyclin E/CDK2 enzyme; [9]) | IC50 (cyclin B/CDK1 enzyme; [10]) | IC50 (HCT-116) | IC50 (LoVo; 3 days) | also measured
O=C1NC(=O)c2ccc(Nc3ccccc3)cc2/C1=C/Nc1ccc(CN2CCCCC2)cc1 [Example 128, (4Z)-6-Anilino-4-({[4-(piperidin-1-ylmethyl)phenyl]amino}methylene)isoquinoline-1,3(2H,4H)-dione] |  |  |  |  |  | IC50 (cyclin D1/cdk 4 enzyme; [1]): 1.8 µM; IC50 (cyclin E/CDK2 enzyme; [2]): > 50 µM; IC50 (cyclin B/CDK1 enzyme; [3]): > 50 µM; IC50 (BT474; [4]): 3.1 µM; IC50 (LoVo; three days): 2.1 µM
CN1CCC(Oc2ccc(N/C=C3\C(=O)NC(=O)c4ccc(Br)cc43)cc2)C1 (stereo not drawn) [Example 877, (4Z)-6-Bromo-4-[({4-[(1-methylpyrrolidin-3-yl)oxy]phenyl}amino)methylene]isoquinoline-1,3(2H,4H)-dione] |  |  |  | 3.9 µM | 6.2 µM | IC50 (cyclin D1/cdk 4 enzyme; [5]): 42.5 µM; IC50 (cyclin E/CDK2 enzyme; [6]): > 50 µM; IC50 (cyclin B/CDK1 enzyme; [7]): > 50 µM; IC50 (MCF-7): 4.4 µM
C[C@@H]1CN(c2ccc(N/C=C3\C(=O)NC(=O)c4ccc(I)cc43)cc2)C[C@H](C)N1C [Example 234, (4Z)-6-Iodo-4-[({4-[(3R,5S)-3,4,5-trimethylpiperazin-1-yl]phenyl}amino)methylene]-isoquinoline-1,3(2H,4H)-dione] |  |  |  |  |  | IC50 (cyclin D1/cdk 4 enzyme; [1]): 2.8 µM; IC50 (cyclin E/CDK2 enzyme; [2]): > 50 µM; IC50 (cyclin B/CDK1 enzyme; [3]): > 50 µM; IC50 (BT474; [4]): 2.5 µM; IC50 (LoVo; three days): 3.4 µM
CN(C)CCCN(C)c1ccc(N/C=C2\C(=O)NC(=O)c3ccc(Br)cc32)cc1 [Example 876, (4Z)-6-Bromo-4-[({4-[[3-(dimethylamino)propyl](methyl)amino]phenyl}amino)methylene]isoquinoline-1,3(2H,4H)-dione] |  |  |  | 4.2 µM | 8.6 µM | IC50 (cyclin D1/cdk 4 enzyme; [5]): 14.4 µM; IC50 (cyclin E/CDK2 enzyme; [6]): > 50 µM; IC50 (cyclin B/CDK1 enzyme; [7]): > 50 µM; IC50 (MCF-7): 5.3 µM
O=C1NC(=O)c2ccc(C=Cc3ccncc3)cc2C1=CNCc1ccc(O)c(O)c1 [Example 663, 4-[(3,4-Dihydroxy-benzylamino)-methylene]-6-(2-pyridin-4-yl-vinyl)-4H-isoquinoline-1,3-dione] | 0.01 µM | 6.3 µM | > 50 µM |  |  | 
CC(=O)c1ccc(-c2ccc3c(c2)C(=CNCc2ccc(O)c(O)c2)C(=O)NC3=O)cc1 [Example 775, 6-(4-Acetyl-phenyl)-4-[(3,4-dihydroxy-benzylamino)-methylene]-4H-isoquinoline-1,3-dione] | 0.2 µM | 14.1 µM | > 50 µM |  |  | 
CCCOc1ccc(CN/C=C2\C(=O)NC(=O)c3ccc(Br)cc32)cc1C(=O)O [Example 352, 5-({[(Z)-(6-Bromo-1,3-dioxo-2,3-dihydroisoquinolin-4(1H)-ylidene)methyl]amino}methyl)-2-propoxybenzoic acid] |  |  |  |  |  | IC50 (cyclin D1/cdk 4 enzyme; [1]): 1.9 µM; IC50 (cyclin E/CDK2 enzyme; [2]): 12 µM; IC50 (cyclin B/CDK1 enzyme; [3]): 22.6 µM
N#Cc1ccc(-c2ccc3c(c2)C(=CNCc2ccc(S(N)(=O)=O)cc2)C(=O)NC3=O)cc1 [Example 755, 4-({[6-(4-Cyano-phenyl)-1,3-dioxo-2,3-dihydro-1H-isoquinolin-4-ylidenemethyl]-amino}-methyl)-benzenesulfonamide] | 0.57 µM | 7.7 µM | 12.3 µM |  |  | 
N#CCc1ccc(NC=C2C(=O)NC(=O)c3ccccc32)cc1 [Example 555, {4-[(1,3-Dioxo-2,3-dihydro-1H-isoquinolin-4-ylidenemethyl)-amino]-phenyl}-acetonitrile] | 14.7 µM | 21.3 µM | 45 µM |  |  | 
O=C1NC(=O)c2ccc(-c3ccc(C(=O)O)cc3)cc2C1=CNCc1ccc(O)c(O)c1 [Example 770, 4-{4-[(3,4-Dihydroxy-benzylamino)-methylene]-1,3-dioxo-1,2,3,4-tetrahydro-isoquinolin-6-yl}-benzoic acid] | 0.09 µM | 13.8 µM | 18.5 µM |  |  | 
CONCCCc1ccc(N/C=C2\C(=O)NC(=O)c3ccc(Br)cc32)cc1 [Example 875, (4Z)-6-bromo-4-[({4-[3-(methoxyamino)propyl]phenyl}amino)methylene]isoquinoline-1,3(2H,4H)-dione] |  |  |  | 9.5 µM | 12.5 µM | IC50 (cyclin D1/cdk 4 enzyme; [5]): 1.9 µM; IC50 (cyclin E/CDK2 enzyme; [6]): 2.8 µM; IC50 (cyclin B/CDK1 enzyme; [7]): 15.1 µM; IC50 (MCF-7): 10.3 µM
NS(=O)(=O)c1ccc(CNC=C2C(=O)NC(=O)c3ccc(C=Cc4ccncc4)cc32)cc1 [Example 653, 4-({[1,3-Dioxo-6-(2-pyridin-4-yl-vinyl)-2,3-dihydro-1H-isoquinolin-4-ylidenemethyl]-amino}-methyl)-benzenesulfonamide] | 0.21 µM | 45.5 µM | > 50 µM |  |  | 

Further lines, with some results ahead:

IC50 (cyclin D1/cdk 4 enzyme; [8]) | IC50 (cyclin E/CDK2 enzyme; [9]) | IC50 (cyclin B/CDK1 enzyme; [10]) | Compound | IC50 (HCT-116) | IC50 (LoVo; 3 days) | also measured
2.3 µM | > 50 µM | > 50 µM | CN1CCN(c2ccc(NC=C3C(=O)NCc4cc(Br)ccc43)cc2)CC1 [Example 842, 7-Bromo-4-{[4-(4-methyl-piperazin-1-yl)-phenylamino]-methylene}-1,4-dihydro-2H-isoquinolin-3-one] | 4.5 µM | 5.7 µM | IC50 (BT474; [11]): 7.2 µM
0.79 µM | 10.3 µM | 2.7 µM | CN1CCN(c2ccc(NC=C3C(=O)NC(=O)c4ccc(-c5ccc6c(ccn6CC(N)=O)c5)cc43)cc2)CC1 [Example 851, 2-[5-(4-{[4-(4-Methyl-piperazin-1-yl)-phenylamino]-methylene}-1,3-dioxo-1,2,3,4-tetrahydro-isoquinolin-6-yl)-indol-1-yl]-acetamide] |  |  | 
0.61 µM | > 50 µM | > 50 µM | CCN(CC)CCn1ccc(-c2ccc3c(c2)C(=CNc2ccc(N4CCN(C)CC4)cc2)C(=O)NC3=O)c1 [Example 854, 6-[1-(2-Diethylamino-ethyl)-1H-pyrrol-3-yl]-4-{[4-(4-methyl-piperazin-1-yl)-phenylamino]-methylene}-4H-isoquinoline-1,3-dione] |  |  | 
 | 25.3 µM | > 50 µM | COc1ccc(NC=C2C(=O)NCc3cc(Br)ccc32)cc1 [Example 841, 7-Bromo-4-[(4-methoxy-phenylamino)-methylene]-1,4-dihydro-2H-isoquinolin-3-one] | 36 µM | 34 µM | IC50 (BT474; [11]): 47.8 µM
